Measured values reported in patent US20250074901A1, “NOVEL HETEROARYL COMPOUNDS” (ICAGEN, LLC, priority 2021, published 2025).

Biological target: T1, Kv7.2 (Homo sapiens, UniProt O43526)
T1 construct: expressed in transfected cells
Assay: Activation of Kv7.2 (in vitro assay, concentration response curve)
Format: cell-based
Conditions: for Emax: Kv7.2 activation max %; for EC50: activation of Kv7.2
Description: The term “EC50” in this application is defined as: the agonistic effect of a compound can be determined by testing the compound in an in vitro assay as described herein, whereby the effect of the compound is measured across a range of compound concentrations. The resulting data is plotted as a concentration response curve, which typically follows a sigmoidal function, whereby the concentration of the compound is plotted on the x axis and the response (agonistic effect) is plotted on the y axis. The term “EC50” is the “half maximal effective concentration” and denotes the concentration of a particular compound required to obtain 50% of the maximum response (Emax) which is observed for that compound in the given in vitro assay.

Compound | Emax [%] | EC50 [nM]
O=C(NCc1cc(OC(F)F)ncc1F)N[C@H]1C[C@H](C(F)(F)F)C1 [Example 277, 1-[[2-(difluoromethoxy)-5-fluoropyridin-4-yl]methyl]-3-[(1r,3r)-3-(trifluoromethyl)cyclobutyl]urea] | 58 | 330
O=C(NCc1ccnc(OC(F)F)c1)N[C@H]1CC[C@@H](C(F)(F)F)CC1 [Example 211, 1-[[2-(difluoromethoxy)pyridin-4-yl]methyl]-3-[(1s,4s)-4-(trifluoromethyl)cyclohexyl]urea] | 61 | 320
O=C(NCc1ccnc(OCC(F)(F)F)c1)NC(C(F)(F)F)C(F)(F)F [Example 285, 1-(1,1,1,3,3,3-hexafluoropropan-2-yl)-3-[[2-(2,2,2-trifluoroethoxy)pyridin-4-yl]methyl]urea] | 87 | 380
O=C(NCc1ccnc(OC(F)F)c1)N[C@H]1C[C@@H](C(F)(F)F)C1 [Example 198, 1-[[2-(difluoromethoxy)pyridin-4-yl]methyl]-3-[(1s,3s)-3-(trifluoromethyl)cyclobutyl]urea] | 65 | 400
O=C(NCc1ccnc(OC(F)F)c1)NC1CC(F)(F)C1 [Example 108, 1-(3,3-difluorocyclobutyl)-3-[[2-(difluoromethoxy)pyridin-4-yl]methyl]urea] | 51 | 2080
O=C(NCc1ccnc(OCC(F)(F)F)c1)NCC1CCC1 [Example 21, 1-(cyclobutylmethyl)-3-[[2-(2,2,2-trifluoroethoxy)pyridin-4-yl]methyl]urea] | 52 | 190
CC1(NC(=O)NCc2ccnc(OC(F)F)c2)CCC(F)(F)CC1 [Example 143, 1-[[2-(difluoromethoxy)pyridin-4-yl]methyl]-3-(4,4-difluoro-1-methylcyclohexyl)urea] | 40 | 1050
O=C(NCc1ccnc(CC(F)(F)F)c1)Nc1cccc(Cl)c1 [Example 275, 1-(3-chlorophenyl)-3-[[2-(2,2,2-trifluoroethyl)pyridin-4-yl]methyl]urea] | 59 | 550
O=C(NCc1ccnc(OC(F)F)c1)NC[C@@]12CCC[C@@H]1CCO2 (racemic) [Example 120, 1-[[2-(difluoromethoxy)pyridin-4-yl]methyl]-3-[[rac-(3aR,6aR)-2,3,3a,4,5,6-hexahydrocyclopenta[b]furan-6a-yl]methyl]urea] | 53 | 3450
O=C(NCc1ccnc(OC(F)F)c1)NCC(O)C12CC(C1)C2 (stereo not drawn) [Example 291, 1-[2-(1-bicyclo[1.1.1]pentanyl)-2-hydroxyethyl]-3-[[2-(difluoromethoxy)pyridin-4-yl]methyl]urea] | 64 | 460
O=C(NC(CO)c1ccnc(OCC(F)(F)F)c1)NC12CC(F)(C1)C2 (stereo not drawn) [Example 283, 1-(3-fluoro-1-bicyclo[1.1.1]pentanyl)-3-[2-hydroxy-1-[2-(2,2,2-trifluoroethoxy)pyridin-4-yl]ethyl]urea] | 68 | 490
O=C(NCc1ccnc(OCC(F)(F)F)c1)NC1CCCC1 [Example 43, 1-cyclopentyl-3-[[2-(2,2,2-trifluoroethoxy)pyridin-4-yl]methyl]urea] | 75 | 140
O=C(NCc1ccnc(OC(F)F)c1)N[C@@H]1CC[C@H](OC(F)(F)F)C1 [Example 288, 1-[[2-(difluoromethoxy)pyridin-4-yl]methyl]-3-[(1R,3S)-3-(trifluoromethoxy)cyclopentyl]urea] | 68 | 250
O=C(NCc1ccnc(OCC(F)CF)c1)Nc1cccc(Cl)c1 (stereo not drawn) [Example 220, 1-(3-chlorophenyl)-3-[[2-(2,3-difluoropropoxy)pyridin-4-yl]methyl]urea] | 48 | 460
O=C(NCc1ccnc(OC(F)F)c1)Nc1ccc(F)c(F)c1F [Example 272, 1-[[2-(difluoromethoxy)pyridin-4-yl]methyl]-3-(2,3,4-trifluorophenyl)urea] | 44 | 910
CC(F)(F)COc1cc(CNC(=O)NC23CC(F)(C2)C3)ccn1 [Example 201, 1-[[2-(2,2-difluoropropoxy)pyridin-4-yl]methyl]-3-(3-fluoro-1-bicyclo[1.1.1]pentanyl)urea] | 60 | 210
O=C(NCc1ccnc(OC(F)F)c1)NC(C1CC1)C(F)(F)F (stereo not drawn) [Example 106, 1-(1-cyclopropyl-2,2,2-trifluoroethyl)-3-[[2-(difluoromethoxy)pyridin-4-yl]methyl]urea] | 47 | 820
O=C(NCc1ccnc(OCC(F)(F)F)c1)NCC(O)C12CC(F)(C1)C2 (stereo not drawn) [Example 290, 1-[2-(3-fluoro-1-bicyclo[1.1.1]pentanyl)-2-hydroxyethyl]-3-[[2-(2,2,2-trifluoroethoxy)pyridin-4-yl]methyl]urea] | 81 | 890

Compound | Emax [%] | EC50 [nM]
O=C(Nc1cccc(Cl)c1F)NC(CO)c1ccnc(OC(F)F)c1 (stereo not drawn) [Example 270, 1-(3-chloro-2-fluorophenyl)-3-[1-[2-(difluoromethoxy)pyridin-4-yl]-2-hydroxyethyl]urea] | 65 | 170
O=C(NCc1ccnc(OC(F)F)c1)N[C@@H]1C[C@H]2CC[C@@H]1C2 (racemic) [Example 12, 1-[[2-(difluoromethoxy)pyridin-4-yl]methyl]-3-[rac-(1R,2R,4S)-2-bicyclo[2.2.1]heptanyl]urea] | 81 | 90
O=C(NCc1ccnc(OC(F)F)c1)N[C@H]1C[C@@H](OC(F)F)C1 [Example 265, 1-[(1s,3s)-3-(difluoromethoxy)cyclobutyl]-3-[[2-(difluoromethoxy)pyridin-4-yl]methyl]urea] | 47 | 470
O=C(NCc1ccnc(OCC(F)(F)F)c1)NCC1(F)CCC1 [Example 210, 1-[(1-fluorocyclobutyl)methyl]-3-[[2-(2,2,2-trifluoroethoxy)pyridin-4-yl]methyl]urea] | 48 | 160
O=C(NCc1ccnc(OC2CC(F)(F)C2)c1)NC12CC(F)(C1)C2 [Example 224, 1-[[2-(3,3-difluorocyclobutyl)oxypyridin-4-yl]methyl]-3-(3-fluoro-1-bicyclo[1.1.1]pentanyl)urea] | 40 | 540
O=C(NCc1ccnc(OC(F)F)c1)NC12CCC(F)(CC1)CC2O (stereo not drawn) [Example 82, 1-[[2-(difluoromethoxy)pyridin-4-yl]methyl]-3-(4-fluoro-2-hydroxy-1-bicyclo[2.2.2]octanyl)urea] | 48 | 1030
O=C(NCc1cc(OC(F)F)ncn1)N[C@H]1C[C@H](C(F)(F)F)C1 [Example 282, 1-[[6-(difluoromethoxy)pyrimidin-4-yl]methyl]-3-[(1r,3r)-3-(trifluoromethyl)cyclobutyl]urea] | 78 | 90
O=C(NCc1ccnc(-n2cnc(C(F)(F)F)c2)c1)NCC1CCC1 [Example 41, 1-(cyclobutylmethyl)-3-[[2-[4-(trifluoromethyl)imidazol-1-yl]pyridin-4-yl]methyl]urea] | 40 | 1130
O=C(NCc1ccnc(OC(F)F)c1)NC1CCC(F)(F)CC1 [Example 90, 1-(4,4-difluorocyclohexyl)-3-[[2-(difluoromethoxy)pyridin-4-yl]methyl]urea] | 62 | 180
O=C(NCc1ccnc(OC(F)F)c1)N[C@H]1CC[C@@H]2CCC[C@@H]21 [Example 103, 1-[(1S,3aS,6aS)-1,2,3,3a,4,5,6,6a-octahydropentalen-1-yl]-3-[[2-(difluoromethoxy)pyridin-4-yl]methyl]urea] | 71 | 30
O=C(NCc1ccnc(OC(F)F)c1)NC1CCCC1(F)F (stereo not drawn) [Example 113, 1-(2,2-difluorocyclopentyl)-3-[[2-(difluoromethoxy)pyridin-4-yl]methyl]urea] | 77 | 3490
O=C(NCc1ccnc(OC(F)F)c1)NC1COC(C2CC2)C1 (stereo not drawn) [Example 166, 1-(5-cyclopropyloxolan-3-yl)-3-[[2-(difluoromethoxy)pyridin-4-yl]methyl]urea] | 66 | 3330
O=C(NCc1ccnc(CC(F)(F)F)c1)N[C@H]1C[C@H](C(F)(F)F)C1 [Example 64, 1-[[2-(2,2,2-trifluoroethyl)pyridin-4-yl]methyl]-3-[(1r,3r)-3-(trifluoromethyl)cyclobutyl]urea] | 70 | 340
O=C(NCc1ccnc(-n2cccn2)c1)N[C@@H]1CCOc2ccccc21 [Example 1, 1-[(4R)-3,4-dihydro-2H-chromen-4-yl]-3-[(2-pyrazol-1-ylpyridin-4-yl)methyl]urea] | 54 | 2420
C[C@]1(O)CCCC[C@@H]1NC(=O)NCc1ccnc(OC(F)F)c1 (racemic) [Example 148, 1-[[2-(difluoromethoxy)pyridin-4-yl]methyl]-3-[rac-(1R,2R)-2-hydroxy-2-methylcyclohexyl]urea] | 64 | 5070
O=C(NCc1ccnc(OC(F)F)c1)NC1(C(F)(F)F)CC1 [Example 175, 1-[[2-(difluoromethoxy)pyridin-4-yl]methyl]-3-[I-(trifluoromethyl)cyclopropyl]urea] | 50 | 8300
O=C(Nc1ccc(F)c(F)c1)NC(CO)c1ccnc(OC(F)F)c1 (stereo not drawn) [Example 240, 1-[1-[2-(difluoromethoxy)pyridin-4-yl]-2-hydroxyethyl]-3-(3,4-difluorophenyl)urea] | 55 | 300
O=C(NCc1ccnc(OCC(F)(F)F)c1)N[C@H]1CC[C@@H](C(F)(F)F)C1 (racemic) [Example 79, 1-[rac-(1R,3S)-3-(trifluoromethyl)cyclopentyl]-3-[[2-(2,2,2-trifluoroethoxy)pyridin-4-yl]methyl]urea] | 55 | 100
